Measured values: patent US8673816B2, “Surfactants in agrochemical formulations” (Croda, Inc., priority 2009, dated 2014)

Tested on: oil seed rape plants (Brassica napus)
Assay: Greenhouse trial of surfactants as adjuvants for Glyphosate
Format: in vivo
Settings: for % control: fresh weight vs untreated controls
Text: A greenhouse trial was run to evaluate the effectiveness of the surfactants of the invention as adjuvants for Glyphosate in controlling the growth of (non-roundup ready) oil seed rape plants (Brassica napus). The trial used surfactant of the invention (SE1) and control adjuvant (FAE) at 3 rates, with 3 rates of glyphosate application, and controls including 3 glyphosate rates without surfactant, all grown in randomised blocks. 10 replications were used for each application, with 1 pot (7×7×8 cm) per plot and at least 4 plants per pot, in Levington M2 medium. The greenhouse conditions of temperature and humidity were recorded and watering was carried out by capillary matting. Additional lighting was provided over natural daylight. The glyphosate treatments were carried out using a pre-calibrated Mardrive greenhouse cabinet sprayer at a volume rate of about 200 I.ha^−1. […]
The type and application rate (Rate in g.ha^−1) of nominally 100% adjuvant, the application rate (Rate in g.ha^−1 active) of glyphosate, the glyphosate to adjuvant weight ratio (G:A) applied to the test plants and the visual assessment (%), and the % control are set out in Table AEA1 below.

[1] = 28 d, glyphosate 125 g.ha^−1, no adjuvant
[2] = 28 d, glyphosate 250 g.ha^−1, no adjuvant
[3] = 28 d, glyphosate 500 g.ha^−1, no adjuvant

SMILES: O=C(O)CNCP(=O)(O)O [Glyphosate, N-phosphonomethyl glycine]
- % damage (15 d, glyphosate 125 g.ha^−1, no adjuvant): 0%
- % damage (15 d, glyphosate 250 g.ha^−1, no adjuvant): 1.5%
- % damage (15 d, glyphosate 500 g.ha^−1, no adjuvant): 11%
- % damage (21 d, glyphosate 125 g.ha^−1, no adjuvant): 5%
- % damage (21 d, glyphosate 250 g.ha^−1, no adjuvant): 5%
- % damage (21 d, glyphosate 500 g.ha^−1, no adjuvant): 33%
- % control [1]: 0.2%
- % control [2]: −6.4%
- % control [3]: 49.5%
- % damage [1]: 0%
- % damage [2]: 0%
- % damage [3]: 52%
